{
  "source": "patent US4057644A",
  "about": "“Active derivatives of methylamine in therapeutic compositions and methods of use” (priority 1976, dated 1977)",
  "key": {"[1]": {"system": "norepinephrine effects on arterial pressure and nictitating membrane", "settings": "in vivo, iv"}, "[2]": {"system": "tremorine-induced cholinergic effects", "assay": "Anti-tremorine test", "type": "in vivo, mice (male, OF1 strain)", "parameters": "key to central cholinergic effects score (normal and provoked tremor): 0: no action; 1: slight action; 2: average action; 3: strong action; 4: very strong action", "settings": "for central cholinergic effects score (normal and provoked tremor): 20, 30 and 40 minutes after tremorine, printed as identical results; for antitremorine properties: mice, oral", "protocol": "When injected into mice, tremorine produces peripheral effects i.e. weeping, sweating, salivation and diarrhoea and central effects i.e. tremor and akinesia. Such effects are due to an increase in the amount of intracerebral acetylcholine and serotonine.\nMale mice of the OF1 strain weighing about 22 g were divided into batches of 10. […] Thirty minutes later a dose of 10 mg/kg of tremorine was injected by intraperitoneal route and, at different times after this injection, note was taken of the cholinergic effects on each animal in accordance with the following scale: […]"}, "[3]": {"system": "electrocardiogram", "assay": "Electrocardiogram", "type": "in vivo", "settings": "dog, injected, 5 mg/kg"}, "[4]": {"system": "norepinephrine effects on arterial pressure and nictitating membrane", "assay": "Influence on peripheral noradrenergic phenomena (arterial pressure, nictitating membrane)", "settings": "cat; for Contractile reaction of the nictitating membrane with electric stimulation / Contractile reaction of the nictitating membrane without electric stimulation / Increase in arterial pressure after injection of norepinephrine: i.v."}, "[5]": {"system": "isolated duodenum of the rat", "assay": "MAGNUS test, inhibition of acetylcholine spasm in vitro (cholinolytic/spasmolytic)", "excerpt": "This test consists in determining the dose of acetylcholine which, when added to the bath, provokes spasm of the isolated duodenum of the rat. The next step consists in determining the dose of the compound under study which, when added to the bath 30 seconds before the acetylcholine, reduces the spasm."}, "[6]": {"settings": "J. Amer. Chem. Soc., 71, 3352 (1949); cited from earlier work"}, "[7]": {"assay": "Spasmolytic activity in vivo", "settings": "at doses well below the toxic dose"}, "[8]": {"assay": "Anti-cholinergic (cholinolytic) activity"}, "[9]": {"system": "neuroleptic-induced catatonia (prochlorperazine)", "assay": "Suppression of neuroleptic-induced catatonia (curative treatment)", "type": "in vivo, rat (male, OFA strain)", "settings": "5 mg/kg, versus amantadine 80 mg/kg", "protocol": "Fifty-five minutes later, an oral dose in aqueous solution of the compound to be studied was administered to all the animals with the exception of the control group. The progress of the catatonia was noted following the same scale as that used in the tests described above."}, "[10]": {"system": "catalepsy", "assay": "Inhibition of prochlorperazine-induced catalepsy (crossing of homolateral paws)", "type": "in vivo", "settings": "Rattus norvegicus, po, 3 h, read-out: dose giving complete inhibition of the catalepsy", "excerpt": "[…]. These trails involved catalepsy as evidenced by the crossing of the animal's homolateral paws."}, "[11]": {"system": "reserpine-induced catatonia", "assay": "Inhibition of reserpine-induced catatonia", "type": "in vivo, rat (male, OFA strain)", "settings": "rat", "protocol": "Ater sufficient doses of reserpine have been administered to the rat, a series of symptoms occur, more particularly ptosis, catatonia and a drop in central temperature. These symptoms are caused by the depletion of the intrangranular reserve pool of biogenetic amines at the synaptic terminals.\nAn oral dose of the compound to be studied in aqueous solution was administered to batches of 10 male rats of the OFA strain weighing about 150 to 200 g. Thirty minutes later a dose of 5 mg/kg of reserpine was given by intraperitoneal route. Three hours after the injection of reserpine, the animals were suspended by the four paws to a horizontally stretched wire fixed at 15 cm from the ground. The catatonic animals were those which maintained the position so given for at least 30 seconds. […] The maximum score was therefore 10 per batch. An identical trial was undertaken with control animals which received reserpine but none of the compounds being studied."}, "[12]": {"system": "reserpine-induced catatonia", "assay": "Suppression of reserpine-induced catatonia (curative treatment)", "type": "in vivo, rat (male, OFA strain)", "settings": "2.5 and 5 mg/kg oral, versus amantadine 80 mg/kg", "protocol": "Batches of 5 male rats of the OFA strain, weighing 150 to 200 g were given 5 mg/kg of reserpine by intraperitoneal route. One hour and 45 minutes later, namely when the animals were in state of catatonia, an aqueous dose of the compound to be studied was administered by oral route to all the animals with the exception of the control group.\nThe progress of the catatonia was then noted following the scale used in the tests described hereabove.\nThe maximum score was thus 5 per batch which means that all the animals of the batch were considered to be still in a state of catatonia."}, "[13]": {"settings": "J. Amer. Chem. Soc., 71, 3352 (1949); cited from earlier work", "remark": "listed apart in the source"}, "[14]": {"system": "neuroleptic-induced catatonia (prochlorperazine)", "assay": "Inhibition of neuroleptic-induced catatonia", "type": "in vivo, rat (male, OFA strain)", "settings": "rat, oral; versus amantadine", "protocol": "The blocking of dopaminergic receptors by neuroleptics in the extra-pyramidal system induces catatonia in the rat. Catatonia is differentiated from sedative properties by means of the test used hereabove for reserpine-induced catatonia. The same system of scoring was also employed in the present case.\nAn oral dose of the compound to be studied in aqueous solution was administered to batches of 10 male rats of the OFA strain weighing about 150 to 200 g.\nThree hours after the injection of this latter compound, catatonia was measured. An identical trial was also carried out with control animals which received prochlorperazine but none of the compounds under study."}},
  "note": "Read-outs that look alike come from different tables or passages of the source.",
  "data": [
    {"smiles": "NC12CC3CC(CC(C3)C1)C2", "note": "[Amantadine, 1-amino-adamantane]", "values": [
      {"measurement": "dose from which exogenous norepinephrine is potentiated", "setting": "[1]; cat", "result": "≥ 1", "unit": "mg/kg"},
      {"measurement": "dose from which ganglioplegic properties are shown", "setting": "[1]; cat", "result": "≥ 5", "unit": "mg/kg"},
      {"measurement": "Contractile reaction of the nictitating membrane with electric stimulation", "setting": "[1]; 0.1 mg/kg", "result": 20, "unit": "mm"},
      {"measurement": "Contractile reaction of the nictitating membrane without electric stimulation", "setting": "[1]; 0.1 mg/kg", "result": 0, "unit": "mm"},
      {"measurement": "Increase in arterial pressure after injection of norepinephrine", "setting": "[1]; 0.1 mg/kg", "result": 29, "unit": "mm Hg"},
      {"measurement": "Contractile reaction of the nictitating membrane with electric stimulation", "setting": "[1]; 1 mg/kg", "result": 20, "unit": "mm"},
      {"measurement": "Contractile reaction of the nictitating membrane without electric stimulation", "setting": "[1]; 1 mg/kg", "result": 3, "unit": "mm"},
      {"measurement": "Increase in arterial pressure after injection of norepinephrine", "setting": "[1]; 1 mg/kg", "result": 35, "unit": "mm Hg"},
      {"measurement": "Contractile reaction of the nictitating membrane with electric stimulation", "setting": "[1]; 3 mg/kg", "result": 16, "unit": "mm"},
      {"measurement": "Contractile reaction of the nictitating membrane without electric stimulation", "setting": "[1]; 3 mg/kg", "result": 4.4, "unit": "mm"},
      {"measurement": "Increase in arterial pressure after injection of norepinephrine", "setting": "[1]; 3 mg/kg", "result": 35, "unit": "mm Hg"},
      {"measurement": "Contractile reaction of the nictitating membrane with electric stimulation", "setting": "[1]; 5 mg/kg", "result": 10, "unit": "mm"},
      {"measurement": "Contractile reaction of the nictitating membrane without electric stimulation", "setting": "[1]; 5 mg/kg", "result": 5.9, "unit": "mm"},
      {"measurement": "Increase in arterial pressure after injection of norepinephrine", "setting": "[1]; 5 mg/kg", "result": 59, "unit": "mm Hg"},
      {"measurement": "Contractile reaction of the nictitating membrane with electric stimulation", "setting": "[1]; 10 mg/kg", "result": 4, "unit": "mm"},
      {"measurement": "Contractile reaction of the nictitating membrane without electric stimulation", "setting": "[1]; 10 mg/kg", "result": 7.5, "unit": "mm"},
      {"measurement": "Increase in arterial pressure after injection of norepinephrine", "setting": "[1]; 10 mg/kg", "result": 57, "unit": "mm Hg"},
      {"measurement": "central cholinergic effects score (normal and provoked tremor)", "setting": "[2]; 40 mg/kg oral", "result": 4},
      {"measurement": "antitremorine properties", "setting": "[2]", "result": "devoid of antitremorine properties"},
      {"measurement": "effect on the electrocardiogram / cardiac rhythm", "setting": "[3]", "result": "provokes cardiac arrhythmia due to ventricular extrasystoles"},
      {"measurement": "own effect on contractile reactions of the nictitating membrane", "setting": "[4]", "result": "stimulates the contractile reactions of the nictitating membrane"},
      {"measurement": "potentiation of exogenous norepinephrine / peripheral adrenergic effects", "setting": "[4]", "result": "potentiates the peripheral adrenergic effects"},
      {"measurement": "potentiation of the effects of the electric stimulation", "setting": "[4]", "result": "does not potentiate"}
    ]},
    {"smiles": "CCCC(N)(CCC)CCC", "note": "[Compound 1]", "values": [
      {"measurement": "spasmolytic / cholinolytic activity in vitro", "setting": "[5]", "result": "virtually non-existent"},
      {"measurement": "spasmolytic / cholinolytic activity in vitro", "setting": "[5]; listed as tri-n-propylmethylamine", "result": "very weak, in fact practically non-existent"},
      {"measurement": "toxicity versus the corresponding trialkylethylamines", "setting": "[6]", "result": "more toxic"},
      {"measurement": "spasmolytic activity in vivo", "setting": "[7]", "result": "non-existent"},
      {"measurement": "central cholinergic effects score (normal and provoked tremor)", "setting": "[2]; 5 mg/kg oral", "result": 4},
      {"measurement": "antitremorine properties", "setting": "[2]", "result": "devoid of antitremorine properties"},
      {"measurement": "anti-cholinergic (cholinolytic) activity", "setting": "[8]", "result": "devoid of anti-cholinergic activity"},
      {"measurement": "rapidity of action against neuroleptic-induced catatonia", "setting": "[9]", "result": "more rapidly"},
      {"measurement": "ED100", "setting": "[10]", "result": 5, "unit": "mg/kg"},
      {"measurement": "degree of activity (pharmacological trials)", "setting": "[11]; in vivo", "result": "marked degree of activity"},
      {"measurement": "dose of equal activity compared with amantadine (reserpine-induced catatonia)", "setting": "[11]; oral, versus amantadine", "result": "twenty times inferior"},
      {"measurement": "potentiation of endogenous norepinephrine", "setting": "[4]", "result": "does not potentiate"},
      {"measurement": "potentiation of exogenous norepinephrine / peripheral adrenergic effects", "setting": "[4]", "result": "does not potentiate"},
      {"measurement": "Contractile reaction of the nictitating membrane with electric stimulation", "setting": "[4]; cumulative dose 0.1 mg/kg", "result": 15, "unit": "mm"},
      {"measurement": "Contractile reaction of the nictitating membrane without electric stimulation", "setting": "[4]; cumulative dose 0.1 mg/kg", "result": 0, "unit": "mm"},
      {"measurement": "Increase in arterial pressure after injection of norepinephrine", "setting": "[4]; cumulative dose 0.1 mg/kg", "result": 18, "unit": "mm Hg"},
      {"measurement": "Contractile reaction of the nictitating membrane with electric stimulation", "setting": "[4]; cumulative dose 1 mg/kg", "result": 16, "unit": "mm"},
      {"measurement": "Contractile reaction of the nictitating membrane without electric stimulation", "setting": "[4]; cumulative dose 1 mg/kg", "result": 0, "unit": "mm"},
      {"measurement": "Increase in arterial pressure after injection of norepinephrine", "setting": "[4]; cumulative dose 1 mg/kg", "result": 25, "unit": "mm Hg"},
      {"measurement": "Contractile reaction of the nictitating membrane with electric stimulation", "setting": "[4]; cumulative dose 3 mg/kg", "result": 17, "unit": "mm"},
      {"measurement": "Contractile reaction of the nictitating membrane without electric stimulation", "setting": "[4]; cumulative dose 3 mg/kg", "result": 0, "unit": "mm"},
      {"measurement": "Increase in arterial pressure after injection of norepinephrine", "setting": "[4]; cumulative dose 3 mg/kg", "result": 29, "unit": "mm Hg"},
      {"measurement": "Contractile reaction of the nictitating membrane with electric stimulation", "setting": "[4]; cumulative dose 5 mg/kg", "result": 16, "unit": "mm"},
      {"measurement": "Contractile reaction of the nictitating membrane without electric stimulation", "setting": "[4]; cumulative dose 5 mg/kg", "result": 0, "unit": "mm"},
      {"measurement": "Increase in arterial pressure after injection of norepinephrine", "setting": "[4]; cumulative dose 5 mg/kg", "result": 25, "unit": "mm Hg"},
      {"measurement": "Contractile reaction of the nictitating membrane with electric stimulation", "setting": "[4]; cumulative dose 10 mg/kg", "result": 12, "unit": "mm"},
      {"measurement": "Contractile reaction of the nictitating membrane without electric stimulation", "setting": "[4]; cumulative dose 10 mg/kg", "result": 0, "unit": "mm"},
      {"measurement": "Increase in arterial pressure after injection of norepinephrine", "setting": "[4]; cumulative dose 10 mg/kg", "result": 22, "unit": "mm Hg"},
      {"measurement": "potentiation of exogenous norepinephrine / peripheral adrenergic effects", "setting": "[4]; listed as preferred compound of the invention", "result": "does not potentiate the peripheral effects of norepinephrine"},
      {"measurement": "rapidity of suppression of reserpine-induced catatonia", "setting": "[12]", "result": "more rapidly"},
      {"measurement": "spasmolytic activity versus the corresponding trialkylethylamines", "setting": "[13]", "result": "less spasmolytic"},
      {"measurement": "activity compared with amantadine (neuroleptic-induced catatonia)", "setting": "[14]", "result": "twenty times more active"}
    ]}
  ]
}
